From paper PMC9934367, “Functional impact of subunit composition and compensation on Drosophila melanogaster nicotinic receptors–targets of neonicotinoids” (PLOS Genetics, 2023)
Like-named read-outs stand apart in the source and are kept apart here.

Columns and labels:
Test in all cases: Voltage-clamp electrophysiology, nAChR expressed in X. laevis oocytes
Assay type in all cases: cell-based, D. melanogaster
Dα1/Dβ1/Dβ2 nAChR = target: T1, Dα1/Dβ1/Dβ2 nAChR (Drosophila melanogaster, UniProt P04755+P09478+P25162)
T1 construct: Dα1 (NP_524481); Dβ1 (NP_523927); Dβ2 (NP_524483); expressed in transfected cells; host or cells: Xenopus laevis oocytes (cRNA injection)
Method: (§1) cDNAs of the nAChR subunits and co-factors were cloned into pcDNA3.1 (+) vector (Thermo Fisher Scientific). The accession numbers of the nAChR subunits and cofactors are as follows: Dα1 (NP_524481), Dα2 (NP_524482), Dα3 (NP_525079), Dα4 (CAB77445), Dβ1 (NP_523927), Dβ2 (NP_524483), Dβ3 (NP_525098), DmRIC-3 (CAP16647), DmUNC-50 (NP_649813), and DmTMX3 (NP_648847). cRNAs were prepared using the mMESSAGE mMACHINE T7 ULTRA Transcription Kit (Thermo Fisher Scientific, #AM1345) according to the manual with the cDNA template which was cut with appropriate restriction enzymes at the 3’ end of the cDNA.
(§2) We minimised the use of X. laevis according to the UK Animals (Scientific Procedures) Act, 1986. […] Oocytes were defolliculated after collagenase treatment in Ca^2+-free standard oocyte saline (Ca^2+-free SOS). cRNAs of the nAChR subunits and co-factors mixed at a concentration of 0.1 mg/mL was injected into oocytes at a volume of 50 nL. Then the oocytes were incubated in the incubation medium (SOS supplemented with sodium pyruvate (Nacalai Tesque, #13058–12), penicillin-streptomycin (MilliporeSigma, #P4333), gentamycin (Nacalai Tesque, #16672–04), and 4% horse serum (Thermo Fisher Scientific, #26050–070) for 3−4 days prior to electrophysiology.
(§3) Each defolliculated X. laevis oocyte was secured in a Perspex recording chamber and perfused with the standard oocyte saline (SOS) containing 0.5 μM atropine (SOSA) at a flow rate of 7−10 mL/min [48]. Two glass electrodes filled with 2 M KCl were impaled into each oocyte and the membrane potential was clamped at -100 mV. […] The peak amplitude of the response was measured and analysed by pCLAMP (Molecular Devices, USA).
(§4) Y=Imax/1+10^(logEC50‐X)nH
(§5) Where Y is the normalised response, X is log[ligand (M)], EC50 is the half maximal concentration (M), Imax is the maximum normalised response and nH is the Hill coefficient.

[1] = target: T2, Dα1/Dα3/Dβ1/Dβ2/Dβ3 nAChR; conditions: mean ± standard error (n = 5); for Imax: normalised to maximum ACh response
T2 construct: Dα1 (NP_524481); Dβ1 (NP_523927); Dβ2 (NP_524483); expressed in transfected cells; host or cells: Xenopus laevis oocytes (cRNA injection)
Method: as §1, §2, §3, §4, §5

[2] = tested on: T3, Dα1/Dα2/Dα3/Dβ1/Dβ2 nAChR; conditions: mean ± standard error (n = 5)
T3 construct: Dα1 (NP_524481); Dα2 (NP_524482); Dβ1 (NP_523927); Dβ2 (NP_524483); expressed in transfected cells; host or cells: Xenopus laevis oocytes (cRNA injection)
Method: as §1, §2, §3, §4, §5

Dα1/Dβ1 nAChR = target: T4, Dα1/Dβ1 nAChR (Drosophila melanogaster, UniProt P04755+P09478); conditions: mean ± standard error (n = 5)
T4 construct: Dα1 (NP_524481); Dβ1 (NP_523927); expressed in transfected cells; host or cells: Xenopus laevis oocytes (cRNA injection)
Method: as §1, §2, §3, §4, §5

Dα3/Dβ1/Dβ2 nAChR = target: T5, Dα3/Dβ1/Dβ2 nAChR (Drosophila melanogaster, UniProt P04755+P25162+Q9W3G6); conditions: Dα3/Dβ1/Dβ2 nAChR
T5 construct: Dβ1 (NP_523927); Dβ2 (NP_524483); expressed in transfected cells; host or cells: Xenopus laevis oocytes (cRNA injection)
Method: as §1, §2, §3, §4, §5

[3] = target: T6, Dα1/Dα2/Dβ1/Dβ2/Dβ3 nAChR; conditions: mean ± standard error (n = 5); for Imax: normalised to maximum ACh response
T6 construct: Dα1 (NP_524481); Dα2 (NP_524482); Dβ1 (NP_523927); Dβ2 (NP_524483); expressed in transfected cells; host or cells: Xenopus laevis oocytes (cRNA injection)
Method: as §1, §2, §3, §4, §5

Dα2/Dα3/Dβ1/Dβ2 nAChR = target: T7, Dα2/Dα3/Dβ1/Dβ2 nAChR (Drosophila melanogaster, UniProt P04755+P17644+P25162+Q9W3G6); conditions: mean ± standard error (n = 5)
T7 construct: Dα2 (NP_524482); Dβ1 (NP_523927); Dβ2 (NP_524483); expressed in transfected cells; host or cells: Xenopus laevis oocytes (cRNA injection)
Method: as §1, §2, §3, §4, §5

Dα1/Dα2/Dβ1 nAChR = target: T8, Dα1/Dα2/Dβ1 nAChR (Drosophila melanogaster, UniProt P04755+P09478+P17644)
T8 construct: Dα1 (NP_524481); Dα2 (NP_524482); Dβ1 (NP_523927); expressed in transfected cells; host or cells: Xenopus laevis oocytes (cRNA injection)
Method: as §1, §2, §3, §4, §5

[4] = target: T9, Dα2/Dα3/Dβ1/Dβ2/Dβ3 nAChR; conditions: mean ± standard error (n = 5); for Imax: normalised to maximum ACh response
T9 construct: Dα2 (NP_524482); Dβ1 (NP_523927); Dβ2 (NP_524483); expressed in transfected cells; host or cells: Xenopus laevis oocytes (cRNA injection)
Method: as §1, §2, §3, §4, §5

Dα1/Dα2/Dβ1/Dβ2 nAChR = target: T10, Dα1/Dα2/Dβ1/Dβ2 nAChR (Drosophila melanogaster, UniProt P04755+P09478+P17644+P25162); conditions: mean ± standard error (n = 5)
T10 construct: Dα1 (NP_524481); Dα2 (NP_524482); Dβ1 (NP_523927); Dβ2 (NP_524483); expressed in transfected cells; host or cells: Xenopus laevis oocytes (cRNA injection)
Method: as §1, §2, §3, §4, §5

Dα2/Dα3/Dβ1 nAChR = target: T11, Dα2/Dα3/Dβ1 nAChR (Drosophila melanogaster, UniProt P04755+P17644+Q9W3G6); conditions: Dα2/Dα3/Dβ1 nAChR, mean ± standard error (n = 5)
T11 construct: Dα2 (NP_524482); Dβ1 (NP_523927); expressed in transfected cells; host or cells: Xenopus laevis oocytes (cRNA injection)
Method: as §1, §2, §3, §4, §5

[5] = efficacy, mean ± standard error (n = 5)
[6] = normalised to maximum ACh response, mean ± standard error (n = 5)
[7] = normalised to maximum ACh response
[8] = mean ± standard error (n = 5), read-out: pEC50 (converted)

SMILES | Imax (Dα1/Dβ1/Dβ2 nAChR; [5]) | Imax (Dα1/Dβ1/Dβ2 nAChR; [6]) | pEC50 [1] | Imax [1] | Imax ([2]; efficacy) | pEC50 [2] | Imax [2, 7] | Imax (Dα1/Dβ1 nAChR; efficacy) | EC50 (Dα1/Dβ1 nAChR) [nM] | Imax (Dα1/Dβ1 nAChR; [7]) | Imax (Dα3/Dβ1/Dβ2 nAChR; [6]) | Imax (Dα3/Dβ1/Dβ2 nAChR; [5]) | pEC50 [3] | Imax [3] | Imax (Dα2/Dα3/Dβ1/Dβ2 nAChR; efficacy) | EC50 (Dα2/Dα3/Dβ1/Dβ2 nAChR) [nM] | Imax (Dα2/Dα3/Dβ1/Dβ2 nAChR; [7]) | Imax (Dα1/Dα2/Dβ1 nAChR; [5]) | Imax (Dα1/Dα2/Dβ1/Dβ2 nAChR; efficacy) | Imax (Dα2/Dα3/Dβ1 nAChR; efficacy) | also measured
CN/C(=N\[N+](=O)[O-])NCc1cnc(Cl)s1 [Clothianidin, clothianidin] | 0.360 | 0.360 ± 0.016 | 7.60 ± 0.12 | 0.531 ± 0.026 | 0.812 | 6.59 ± 0.07 | 0.812 ± 0.019 | 0.508 | 74.1 | 0.508 ± 0.015 | 0.492 ± 0.016 | 0.492 | 5.67 ± 0.11 | 0.974 ± 0.041 | 0.634 | 51.3 | 0.634 ± 0.020 | 0.699 | 0.800 | 0.882 | EC50 (Dα1/Dβ1/Dβ2 nAChR; read-out: EC50): 229 nM; Imax ([2]; normalised to maximum ACh response, listed as clothianidin): 0.812; EC50 (Dα3/Dβ1/Dβ2 nAChR; read-out: EC50): 34.7 nM; Imax ([3]; listed as clothianidin): 0.974; EC50 (Dα1/Dα2/Dβ1 nAChR; [8]): 8510 nM; Imax (Dα1/Dα2/Dβ1 nAChR; [6]): 0.699 ± 0.034; pEC50 [4]: 7.46 ± 0.06; Imax [4]: 0.695 ± 0.014; EC50 (Dα1/Dα2/Dβ1/Dβ2 nAChR): 490 nM; Imax (Dα1/Dα2/Dβ1/Dβ2 nAChR; [7]): 0.800 ± 0.033; EC50 (Dα2/Dα3/Dβ1 nAChR): 155 nM; Imax (Dα2/Dα3/Dβ1 nAChR; [7]): 0.882 ± 0.076
O=[N+]([O-])NC1=NCCN1Cc1ccc(Cl)nc1 [Imidacloprid, imidacloprid] | 0.076 | 0.076 ± 0.006 | 7.72 ± 0.11 | 0.140 ± 0.008 | 0.142 | 6.47 ± 0.14 | 0.142 ± 0.011 | 0.122 | 69.2 | 0.122 ± 0.007 | 0.039 ± 0.002 | 0.039 | 6.27 ± 0.21 | 0.080 ± 0.007 | 0.125 | 100 | 0.125 ± 0.018 | 0.031 | 0.165 | 0.101 | EC50 (Dα1/Dβ1/Dβ2 nAChR; read-out: EC50): 102 nM; Imax ([2]; normalised to maximum ACh response, listed as imidacloprid): 0.142; EC50 (Dα3/Dβ1/Dβ2 nAChR; read-out: EC50): 5.25 nM; Imax ([3]; listed as imidacloprid): 0.080; EC50 (Dα1/Dα2/Dβ1 nAChR; [8]): 195 nM; Imax (Dα1/Dα2/Dβ1 nAChR; [6]): 0.031 ± 0.002; pEC50 [4]: 7.75 ± 0.31; Imax [4]: 0.021 ± 0.003; Imax ([4]; listed as imidacloprid): 0.021; EC50 (Dα1/Dα2/Dβ1/Dβ2 nAChR): 355 nM; Imax (Dα1/Dα2/Dβ1/Dβ2 nAChR; [7]): 0.165 ± 0.016; EC50 (Dα2/Dα3/Dβ1 nAChR): 132 nM; Imax (Dα2/Dα3/Dβ1 nAChR; [7]): 0.101 ± 0.016
CC(=O)OCC[N+](C)(C)C [ACh, acetylcholine] | 1 |  |  |  | 1 |  |  | 1 |  |  |  | 1 |  |  | 1 |  |  | 1 | 1 | 1 | 
N#C/N=C1\SCCN1Cc1ccc(Cl)nc1 [Thiacloprid, thiacloprid] | 0.043 | 0.043 ± 0.002 | 8.63 ± 0.23 | 0.089 ± 0.009 | 0.059 | 7.18 ± 0.17 | 0.059 ± 0.006 | 0.091 | 16.2 | 0.091 ± 0.009 | 0.022 ± 0.003 | 0.022 | 7.71 ± 0.43 | 0.023 ± 0.004 | 0.017 | 8.32 | 0.017 ± 0.002 | 0.025 | 0.074 | 0.045 | EC50 (Dα1/Dβ1/Dβ2 nAChR; [8]): 13.8 nM; Imax ([2]; normalised to maximum ACh response, listed as thiacloprid): 0.059; EC50 (Dα3/Dβ1/Dβ2 nAChR; [8]): 4.79 nM; Imax ([3]; listed as thiacloprid): 0.023; Imax (Dα1/Dα2/Dβ1 nAChR; [6]): 0.025 ± 0.001; EC50 (Dα1/Dα2/Dβ1 nAChR; read-out: EC50): 120 nM; pEC50 [4]: 8.31 ± 0.17; Imax [4]: 0.010 ± 0.001; Imax ([4]; listed as thiacloprid): 0.010; EC50 (Dα1/Dα2/Dβ1/Dβ2 nAChR): 79.4 nM; Imax (Dα1/Dα2/Dβ1/Dβ2 nAChR; [7]): 0.074 ± 0.014; EC50 (Dα2/Dα3/Dβ1 nAChR): 120 nM; Imax (Dα2/Dα3/Dβ1 nAChR; [7]): 0.045 ± 0.006
